Laboratory results from PubChem BioAssay AID330 (DTP/NCI, 2004).
Several values for one entry are separate records, joined by “and”; a condition that tells them apart may be missing. Equal entries are not always repeated. Toxic doses and inconclusive results are not listed. The calls were made as follows: active = survival T/C of 150% or more; inactive = T/C below 125% in these data.

Test system: P388 leukemia ip, CD2F1 mice, survival T/C
Assay: NCI In Vivo Anticancer Drug Screen. Data for tumor model P388 Leukemia (intraperitoneal) in CD2F1 (CDF1) mice
Conditions: endpoint: median survival time, higher = longer survival
How it was run: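 Mice carrying the transplanted tumor received test compound or vehicle. Survival was recorded in each group, and the value is the treated-group measurement divided by that of the vehicle-treated control group.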

[1] = dose: 50.0 mg/kg/injection, schedule: Q01DX005 (ip), vehicle: saline
[2] = dose: 100.0 mg/kg/injection, schedule: Q01DX005 (ip), vehicle: saline
[3] = dose: 50.0 mg/kg/injection, schedule: Q01DX005 (ip), vehicle: Klucel (hydroxypropylcellulose) (HPC)
[4] = dose: 100.0 mg/kg/injection, schedule: Q01DX005 (ip), vehicle: Klucel (hydroxypropylcellulose) (HPC)
[5] = dose: 12.5 mg/kg/injection, schedule: Q01DX009 (ip), vehicle: saline with Tween-80
[6] = dose: 25.0 mg/kg/injection, schedule: Q01DX009 (ip), vehicle: saline with Tween-80
[7] = dose: 50.0 mg/kg/injection, schedule: Q01DX005 (ip), vehicle: saline with Tween-80
[8] = dose: 100.0 mg/kg/injection, schedule: Q01DX005 (ip), vehicle: saline with Tween-80
[9] = dose: 200.0 mg/kg/injection, schedule: Q01DX005 (ip), vehicle: saline with Tween-80
[10] = dose: 3.12 mg/kg/injection, schedule: Q01DX009 (ip), vehicle: Klucel (hydroxypropylcellulose) (HPC)

Measured: T/C

CCN(Cc1cccc(S(=O)(=O)O)c1)c1ccc(C(=C2C=CC(=[N+](CC)Cc3cccc(S(=O)(=O)O)c3)C=C2)c2ccccc2)cc1
inactive: [1] 107 % of control | [2] 110 % of control | dose: 200.0 mg/kg/injection, schedule: Q01DX005 (ip), vehicle: saline 115 % of control

CNC(=S)N/N=C/Cn1ccc(=O)[nH]c1=O
inactive: [3] 89 % of control | [4] 90 % of control

c1ccc2c(CCc3c4ccccc4nc4ccccc34)c3ccccc3nc2c1
inactive: dose: 100.0 mg/kg/injection, schedule: Q01DX001 (ip), vehicle: Klucel (hydroxypropylcellulose) (HPC) 102 % of control | dose: 200.0 mg/kg/injection, schedule: Q01DX001 (ip), vehicle: Klucel (hydroxypropylcellulose) (HPC) 105 % of control | dose: 400.0 mg/kg/injection, schedule: Q01DX001 (ip), vehicle: Klucel (hydroxypropylcellulose) (HPC) 105 % of control

CC(O)C(O)C=O (centres undefined)
inactive: dose: 248.0 mg/kg/injection, schedule: Q01DX010 (ip), vehicle: saline 110 % of control

CC1(C)O[C@@H]2C[C@H]3[C@@H]4CCC5=CC(=O)CC[C@]5(C)[C@@]4(F)[C@@H](O)C[C@]3(C)[C@]2(C(=O)CO)O1
inactive: [5] 109 % of control | [6] 86 % of control

OCC1(C2CCN(Cc3ccccc3)CC2)OCCO1
inactive: dose: 25.0 mg/kg/injection, schedule: Q01DX005 (ip), vehicle: saline 101 % of control | [1] 100 % of control | [2] 101 % of control

C=C1CC2(CCCC(=O)C2)OC1=O (centres undefined)
inactive: dose: 12.5 mg/kg/injection, schedule: Q01DX005 (ip), vehicle: Klucel (hydroxypropylcellulose) (HPC) 97 % of control | dose: 25.0 mg/kg/injection, schedule: Q01DX005 (ip), vehicle: Klucel (hydroxypropylcellulose) (HPC) 101 % of control | [3] 99 % of control and 101 % of control

N#C[C@H]1C[C@@H](c2ccccc2)N(c2ccccc2)O1
inactive: dose: 50.0 mg/kg/injection, schedule: Q01DX005 (ip), vehicle: saline + Tween-80 + alcohol 98 % of control | dose: 100.0 mg/kg/injection, schedule: Q01DX005 (ip), vehicle: saline + Tween-80 + alcohol 100 % of control | dose: 200.0 mg/kg/injection, schedule: Q01DX005 (ip), vehicle: saline + Tween-80 + alcohol 100 % of control

CCOC(=O)C1Cc2c([nH]c(=O)[nH]c2=O)OC1c1cccc(Cl)c1 (centres undefined)
inactive: dose: 3.12 mg/kg/injection, schedule: Q01DX009 (ip), vehicle: saline with Tween-80 94 % of control | dose: 6.25 mg/kg/injection, schedule: Q01DX009 (ip), vehicle: saline with Tween-80 93 % of control | [5] 96 % of control | [6] 100 % of control

CCC[CH2][Sn]([Cl])([Cl])[CH2]CCC.c1ccc(-c2nnc(-c3ccccn3)nc2-c2ccccc2)cc1
inactive: dose: 60.0 mg/kg/injection, schedule: Q01DX005 (ip), vehicle: Klucel (hydroxypropylcellulose) (HPC) 106 % of control | dose: 120.0 mg/kg/injection, schedule: Q01DX005 (ip), vehicle: Klucel (hydroxypropylcellulose) (HPC) 106 % of control

CC1=C(C(C)(C)C)C(=O)c2ccccc2C1=O
inactive: [3] 100 % of control | [4] 103 % of control | dose: 200.0 mg/kg/injection, schedule: Q01DX005 (ip), vehicle: Klucel (hydroxypropylcellulose) (HPC) 107 % of control

Cc1ccccc1C1(Br)C(=O)c2ccccc2C1=O
inactive: dose: 100.0 mg/kg/injection, schedule: Q04DX002 (ip), vehicle: saline 101 % of control | dose: 200.0 mg/kg/injection, schedule: Q04DX002 (ip), vehicle: saline 101 % of control | dose: 400.0 mg/kg/injection, schedule: Q04DX002 (ip), vehicle: saline 102 % of control

O=C(NC(Cc1c[nH]c2ccccc12)C(=O)NC(Cc1ccc(O)cc1)C(=O)O)OCc1ccccc1 (centres undefined)
inactive: [7] 101 % of control | [8] 106 % of control | [9] 89 % of control

CC1(C)C(C)(C)C1(Br)Br
inactive: dose: 12.5 mg/kg/injection, schedule: Q01DX009 (ip), vehicle: saline + alcohol 102 % of control | dose: 25.0 mg/kg/injection, schedule: Q01DX009 (ip), vehicle: saline + alcohol 111 % of control | dose: 50.0 mg/kg/injection, schedule: Q01DX009 (ip), vehicle: saline + alcohol 103 % of control | dose: 100.0 mg/kg/injection, schedule: Q01DX009 (ip), vehicle: saline + alcohol 100 % of control and 95 % of control | dose: 200.0 mg/kg/injection, schedule: Q01DX009 (ip), vehicle: saline + alcohol 89 % of control

COc1cc2cnc(-c3ccncc3)c(N)c2cc1OC
inactive: dose: 100.0 mg/kg/injection, schedule: Q04DX003 (ip), vehicle: suspension in saline 100 % of control | dose: 200.0 mg/kg/injection, schedule: Q04DX003 (ip), vehicle: suspension in saline 93 % of control | dose: 400.0 mg/kg/injection, schedule: Q04DX003 (ip), vehicle: suspension in saline 89 % of control

C=C1C(O)C23CCC4C(C(=O)O)(C(=O)O)CC(OC5OC(CO)C(O)C(OC(=O)CCc6ccccc6)C5NC(=O)CC(C)C)CC4(C)C2CCC1(O)C3 (centres undefined)
inactive: dose: 0.25 mg/kg/injection, schedule: Q01DX005 (ip), vehicle: Klucel (hydroxypropylcellulose) (HPC) 96 % of control | dose: 0.5 mg/kg/injection, schedule: Q01DX005 (ip), vehicle: Klucel (hydroxypropylcellulose) (HPC) 98 % of control | dose: 1.0 mg/kg/injection, schedule: Q01DX005 (ip), vehicle: Klucel (hydroxypropylcellulose) (HPC) 100 % of control | dose: 3.12 mg/kg/injection, schedule: Q01DX005 (ip), vehicle: Klucel (hydroxypropylcellulose) (HPC) 101 % of control

O=C(CNO)OCc1ccccc1
inactive: dose: 25.0 mg/kg/injection, schedule: Q01DX009 (ip), vehicle: other 97 % of control | dose: 50.0 mg/kg/injection, schedule: Q01DX009 (ip), vehicle: other 106 % of control | dose: 100.0 mg/kg/injection, schedule: Q01DX009 (ip), vehicle: other 104 % of control | dose: 200.0 mg/kg/injection, schedule: Q01DX009 (ip), vehicle: other 100 % of control | dose: 400.0 mg/kg/injection, schedule: Q01DX009 (ip), vehicle: other 106 % of control

CNC(=O)O[C@H]1CC[C@@]2(C)C(=CC[C@H]3[C@@H]4CC[C@H]([C@H](C)CCCC(C)C)[C@@]4(C)CC[C@@H]32)C1
inactive: [7] 100 % of control | [8] 96 % of control | [9] 100 % of control

O=C1N=C2C=CC=CN2C(=O)C1Cc1ccccc1 (centres undefined)
inactive: dose: 100.0 mg/kg/injection, schedule: Q01DX009 (ip), vehicle: saline with Tween-80 120 % of control | dose: 200.0 mg/kg/injection, schedule: Q01DX009 (ip), vehicle: saline with Tween-80 110 % of control | dose: 400.0 mg/kg/injection, schedule: Q01DX009 (ip), vehicle: saline with Tween-80 90 % of control

CC1CN1C1=C(Cl)C(=O)C(N2CC2C)=C(Cl)C1=O (centres undefined)
inactive: [10] 115 % of control

O=C1[C@@H]2[C@H](C(=O)N1c1ccccc1)[C@H]1CC[C@H]2N1C(=O)c1ccccc1
inactive: dose: 60.0 mg/kg/injection, schedule: Q01DX005 (ip), vehicle: saline with Tween-80 96 % of control | dose: 120.0 mg/kg/injection, schedule: Q01DX005 (ip), vehicle: saline with Tween-80 100 % of control | dose: 240.0 mg/kg/injection, schedule: Q01DX005 (ip), vehicle: saline with Tween-80 88 % of control

Cn1c2ccccc2c(=O)c2c(O)cc3c(c21)C=CC(C)(C)O3
inactive: dose: 0.38 mg/kg/injection, schedule: Q01DX009 (ip), vehicle: Klucel (hydroxypropylcellulose) (HPC) 107 % of control | dose: 0.38 mg/kg/injection, schedule: Q01DX009 (ip), vehicle: saline with Tween-80 95 % of control | dose: 0.75 mg/kg/injection, schedule: Q01DX009 (ip), vehicle: Klucel (hydroxypropylcellulose) (HPC) 102 % of control and 97 % of control | dose: 0.75 mg/kg/injection, schedule: Q01DX009 (ip), vehicle: saline with Tween-80 98 % of control | dose: 1.5 mg/kg/injection, schedule: Q01DX009 (ip), vehicle: Klucel (hydroxypropylcellulose) (HPC) 99 % of control and 103 % of control | dose: 1.5 mg/kg/injection, schedule: Q01DX009 (ip), vehicle: saline with Tween-80 94 % of control | dose: 1.56 mg/kg/injection, schedule: Q01DX009 (ip), vehicle: Klucel (hydroxypropylcellulose) (HPC) 124 % of control | dose: 3.0 mg/kg/injection, schedule: Q01DX009 (ip), vehicle: Klucel (hydroxypropylcellulose) (HPC) 102 % of control and 103 % of control | dose: 3.0 mg/kg/injection, schedule: Q01DX009 (ip), vehicle: saline with Tween-80 94 % of control | [10] 101 % of control | dose: 6.25 mg/kg/injection, schedule: Q01DX009 (ip), vehicle: Klucel (hydroxypropylcellulose) (HPC) 102 % of control | dose: 12.5 mg/kg/injection, schedule: Q01DX009 (ip), vehicle: Klucel (hydroxypropylcellulose) (HPC) 100 % of control
